The values below come from patent publication US9586963B2 (GENFIT, priority 2011, dated 2017).

The EC50 is the midpoint of the concentration-response curve.

Structures can show the parent of a compound that is named as a salt.

The target in one assay is T1, Rev-Erb alpha (Homo sapiens, UniProt P20393).
T1 sequence (P20393 284-614 limits assumed): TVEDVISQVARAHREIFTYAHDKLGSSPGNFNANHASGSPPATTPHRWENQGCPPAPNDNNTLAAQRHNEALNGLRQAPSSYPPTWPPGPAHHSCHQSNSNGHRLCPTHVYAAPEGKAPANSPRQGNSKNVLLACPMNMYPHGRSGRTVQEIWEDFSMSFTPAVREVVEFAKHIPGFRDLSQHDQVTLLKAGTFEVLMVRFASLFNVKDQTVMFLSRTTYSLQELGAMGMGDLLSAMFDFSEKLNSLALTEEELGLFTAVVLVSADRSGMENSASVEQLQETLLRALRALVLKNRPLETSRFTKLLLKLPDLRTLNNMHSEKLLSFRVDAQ
Description: M2H (mammalian two-hybrid) cellular activation assay of Rev-Erb alpha. Type of assay: cell-based. The following applies: M2H assay, HEK293 cells, Gal4-Rev-Erb alpha / VP16-NCoR, luciferase reporter. On the procedure:
In this system, Rev-Erb alpha or Rev-Erb beta is expressed as a fusion to the Gal4 DNA-binding domain and the cofactor NCoR is expressed as a fusion to the activation domain of the Herpes Simplex Virus tegument protein VP16. These fusion proteins were included in plasmids at a concentration of 1 μg/μL. The pBS-SK+ vector was added to the preparation to adjust the DNA quantity to a fixed value for each condition.
The transfection mix (Jet-PEI protocol, Polyplus transfection) comprised: • 3 mL of Jet PEI Mix (180 μL Jet-Pei and NaCl at 150 mM) and • 3 mL of the DNA Mix or of the DNA Mix control (wherein the Gal4-Rev-Erb alpha plasmid was replaced by a pGal4phi plasmid).
DNA Mix comprised 1.2 mL of DNA and 1.8 mL of NaCl at 150 mM with, in a T225 flask: • 90 ng of Gal4-Rev-Erb alpha, or 90 ng of Gal4-Rev-Erb beta, • 4500 ng of VP16-NCoR, • 27000 ng of Gal4-RE and • 13410 ng of pBS-SK+. Cells
HEK293 cells were cultured in DMEM (Invitrogen 41965) comprising 10% FBS, P/S, 1% glutamine, 1% pyruvate (Invitrogen 11360) and 1% amino acids (Invitrogen 11140). Cells were then batch co-transfected with plasmid vectors (described in the table above) using as Jet-PEI as reagent (Polyplus) following the protocol specified below.
The 6 mL-transfection mix was transferred in a T225 flask. HEK293 cells were then added at a concentration of 12 Millions of cells for 54 mL of medium (DMEM comprising 10% FBS and 1% P/S). Cells incubated over-night at 37° C. and under 5% CO2.
This cell-based assay is performed using 384-well Greiner white plates (Reference 781080). After the incubation, cells were rinsed with PBS, trypsinized, centrifuged and resuspended in free-serum DMEM without phenol red (Invitrogen 31053). Cells were counted and adjusted to 0.5 Million per mL and plated at a concentration of 10,000 cells in 20 μL per well. They were incubated a minimum of 4 hours at 37° C. under 5% CO2. Cells were treated with 20 μL of the compound to analyze (concentration of 2× diluted in DMEM without FBS containing a maximum of 1% DMSO) and incubated over-night (18 hours, 37° C. and 5% CO2). Each compound has been tested at 6 different concentrations to depict a dose-effect allowing the measure of biochemical parameters such as EC50 and TOP activation (%).
Cells were incubated 30 minutes with 40 μL/well of Steady Glow (Promega) and luminescence was read with TECAN Genios Pro (100 ms/w). Four experiments were carried out for each compound.
Each compound has been tested at 6 different concentrations to depict a dose-effect allowing the measure of biochemical parameters such as EC50 and TOP activation (%).
The mammalian two-hybrid system (M2H) assay consists herein in studying the ability of compounds according to the invention to activate Rev-Erbalpha in cells and thus modulate the interaction with its corepressor. The interaction of the two proteins is assessed with the help of the Luciferase reporter gene. HEK293 cells were transfected with two gene constructions: Gal4-RE VP16-NCoR and Gal4-Rev-Erbalpha or with Gal4-RE, sVP16-NCoR and Gal4-Rev-Erb beta.
The ability of compounds according to the invention of activating Rev-Erbalpha alpha or Rev-Erb beta was assessed in the described cell-based assay. EC50 and TOP activation (%) were measured.
Regarding `Oc1cccc(-c2cc(F)c(F)cc2Oc2ccc3nnc(Cl)n3n2)c1` [Cpd.4-153, 3-chloro-6-(4,5-difluoro-3′-hydroxybiphenyl-2-yloxy)-[1,2,4]triazolo[4,3-b]pyridazine], the EC50 is 1 to 6 µM.

As to `Cc1cc2nnc(Cl)n2nc1Oc1cc(C(F)(F)F)ccc1-c1cccnc1C` [Cpd.5-20, 3-chloro-7-methyl-6-(2-(2-methylpyridin-3-yl)-5-(trifluoromethyl)phenoxy)-[1,2,4]triazolo[4,3-b]pyridazine], the EC50 lay in the range of 0.1 to 1 µM.

The molecule `CN1CCN(Cc2ccc(C(F)(F)F)cc2Oc2ccc3nnc(Cl)n3n2)CC1` [Cpd.4-124, 3-chloro-6-(2-((4-methylpiperazin-1-yl)methyl)-5-(trifluoromethyl)phenoxy)-[1,2,4]triazolo[4,3-b]pyridazine] showed an EC50 above 6 µM.

`Cc1nc(-c2ccc(-c3ccccc3)c(Oc3ccc4nnc(Cl)n4n3)c2)no1` [Cpd.4-197, 3-chloro-6-(5-(5-methyl-1,2,4-oxadiazol-3-yl)-2-(phenyl)phenoxy)-[1,2,4]triazolo[4,3-b]pyridazine]: the EC50 lay in the range of 0.1 to 1 µM.

On to `CN(CCc1ccccc1)Cc1ccc(Oc2ccc3nnc(Cl)n3n2)c(-c2ccccc2)c1`, for which the EC50 lay in the range of 1 to 6 µM.

Turning to `COc1ncc(C)cc1-c1ccc(C(F)(F)F)cc1Oc1nn2c(Cl)nnc2cc1C` [Cpd.5-28, 3-chloro-7-methyl-6-((2-(2-methoxy-5-methylpyridin-3-yl))-5-(trifluoromethyl)phenoxy)-[1,2,4]triazolo[4,3-b]pyridazine], the EC50 was in the range of 1 to 6 µM.

As to `FC(F)(F)c1ccc(-c2ccccn2)c(Oc2ccc3nnc(Cl)n3n2)c1` [Cpd.4-97, 3-chloro-6-(2-(pyridin-2-yl)-5-(trifluoromethyl)phenoxy)-[1,2,4]triazolo[4,3-b]pyridazine hydrochloride], the EC50 was in the range of 1 to 6 µM.

Turning to `Fc1ncccc1-c1ccc(C(F)(F)F)cc1Oc1ccc2nnc(Cl)n2n1` [Cpd.4-78, 3-chloro-6-(2-(2-fluoropyridin-3-yl)-5-(trifluoromethyl)phenoxy)-[1,2,4]triazolo[4,3-b]pyridazine], the EC50 is 0.1 to 1 µM.

With `COc1ccncc1-c1ccc(C(F)(F)F)cc1Oc1ccc2nnc(Cl)n2n1` [Cpd.4-100, 3-chloro-6-(2-(4-methoxypyridin-3-yl)-5-(trifluoromethyl)phenoxy)-[1,2,4]triazolo[4,3-b]pyridazine], the EC50 is 1 to 6 µM.

Consider `CCN(CC)Cc1ccc(Oc2ccc3nnc(Cl)n3n2)c(-c2ccccc2)c1` [Cpd.4-157, 3-chloro-6-(5-diethylaminomethylbiphenyl-2-yloxy)-[1,2,4]triazolo[4,3-b]pyridazine], for which the EC50 was above 6 µM.

The molecule `Cc1ccc(-c2ccc(C(F)(F)F)cc2Oc2nn3c(Cl)nnc3c3ccccc23)cn1` [Cpd.5-18, 3-chloro-6-(2-(6-methylpyridin-3-yl)-5-(trifluoromethyl)phenoxy)-[1,2,4]triazolo[3,4-a]phthalazine] displayed an EC50 of 0.1 to 1 µM.

The molecule `COC(=O)c1ccc(-c2ccccc2)c(Oc2ccc3nnc(Cl)n3n2)c1` [Cpd.4-43, 3-chloro-6-(4-methyloxycarbonyl-biphenyl-2-yloxy)-[1,2,4]triazolo[4,3-b]pyridazine] gave an EC50 below 0.1 µM.

In turn, `CC(=O)Nc1ccc(-c2ccccc2)c(Oc2ccc3nnc(Cl)n3n2)c1` [Cpd.4-49, 3-chloro-6-(4-acetamido-biphenyl-2-yloxy)-[1,2,4]triazolo[4,3-b]pyridazine] registered an EC50 of 1 to 6 µM.

The molecule `COc1ncc(-c2ccc(C(F)(F)F)cc2Oc2ccc3nnc(Cl)n3n2)cn1` [Cpd.4-127, 3-chloro-6-((2-(2-methoxypyrimidin-5-yl))-5-(trifluoromethyl)phenoxy)-[1,2,4]triazolo[4,3-b]pyridazine] came in with an EC50 of 1 to 6 µM.

For the molecule `CS(=O)(=O)N1CCN(Cc2ccc(-c3ccccc3)c(Oc3ccc4nnc(Cl)n4n3)c2)CC1` [Cpd.4-182, 3-chloro-6-(4-(4-methanesulfonylpiperazin-1-ylmethyl)biphenyl-2-yloxy)-[1,2,4]triazolo[4,3-b]pyridazine], the EC50 is 1 to 6 µM.

`Fc1ccc(Oc2ccc3nnc(Cl)n3n2)c(-c2cccnc2)c1` [Cpd.4-107, 3-chloro-6-(4-fluoro-2-(pyridin-3-yl)phenoxy)-[1,2,4]triazolo[4,3-b]pyridazine] came in with an EC50 above 6 µM.

In the case of `FC(F)(F)c1ccc(Oc2ccc3nnc(Cl)n3n2)c(-c2ccccc2)c1` [Cpd.4-40, 6-(5-trifluoromethyl-biphenyl-2-yloxy)-3-chloro-[1,2,4]triazolo[4,3-b]pyridazine], the EC50 is 0.1 to 1 µM.

Regarding `Cc1ncccc1-c1ccc(C(F)(F)F)cc1Oc1ccc2nnc(Cl)n2n1` [Cpd.4-123, 3-chloro-6-(2-(2-methylpyridin-3-yl)-5-(trifluoromethyl)phenoxy)-[1,2,4]triazolo[4,3-b]pyridazine], the EC50 is 0.1 to 1 µM.

Turning to `COc1cccc(-c2ccccc2Oc2ccc3nnc(Cl)n3n2)c1` [Cpd.4-16, 6-(3′-methoxy-biphenyl-2-yloxy)-3-chloro-[1,2,4]triazolo[4,3-b]pyridazine], the EC50 was in the range of 0.1 to 1 µM.

In turn, `CN1CCN(Cc2ccc(Oc3ccc4nnc(Cl)n4n3)c(-c3ccccc3)c2)CC1` [Cpd.4-159, 3-chloro-6-(5-(4-methylpiperazin-1-ylmethyl)biphenyl-2-yloxy)-[1,2,4]triazolo[4,3-b]pyridazine] returned an EC50 above 6 µM.

Molecule `COc1ncc(-c2ccc(C(F)(F)F)cc2Oc2cc(C)c3nnc(Cl)n3n2)c(OC)n1` [Cpd.5-50, 3-chloro-6-(2-(2,4-dimethoxypyrimidin-5-yl)-5-(trifluoromethyl)phenoxy)-8-methyl-[1,2,4]triazolo[4,3-b]pyridazine] yielded an EC50 of 1 to 6 µM.

Molecule `Cc1cccc(-c2ccccc2Oc2ccc3nnc(C(F)(F)F)n3n2)c1` [Cpd.4-133, 3-(trifluoromethyl)-6-(3′-methylbiphenyl-2-yloxy)-[1,2,4]triazolo[4,3-b]pyridazine] came in with an EC50 of 0.1 to 1 µM.

Regarding `Cc1cc2nnc(Cl)n2nc1Oc1cc(C(F)(F)F)ccc1-c1cncnc1` [Cpd.5-29, 3-chloro-7-methyl-6-(2-(pyrimidin-5-yl)-5-(trifluoromethyl)phenoxy)-[1,2,4]triazolo[4,3-b]pyridazine], the EC50 lay within 1 to 6 µM.

Molecule `CC(=O)Nc1ccc(Oc2ccc3nnc(Cl)n3n2)c(-c2ccccc2)c1` [Cpd.4-174, 3-chloro-6-(5-acetamidobiphenyl-2-yloxy)-[1,2,4]triazolo[4,3-b]pyridazine] showed an EC50 of 1 to 6 µM.

Turning to `FC(F)(F)c1ccc(-c2cncnc2)c(Oc2nn3c(Cl)nnc3c3ccccc23)c1` [Cpd.5-22, 3-chloro-6-(2-(pyrimidin-5-yl)-5-(trifluoromethyl)phenoxy)-[1,2,4]triazolo[3,4-a]phthalazine], the EC50 fell in the range of 0.1 to 1 µM.

`Nc1ccc(Oc2ccc3nnc(Cl)n3n2)c(-c2ccccc2)c1` [Cpd.4-36, 6-(5-amino-biphenyl-2-yloxy)-3-chloro-[1,2,4]triazolo[4,3-b]pyridazine] displayed an EC50 of 1 to 6 µM.

Take `Clc1ccc(Oc2ccc(Cl)cc2Oc2ccc3nnc(Cl)n3n2)c(Cl)c1` [Cpd.4-114, 3-chloro-6-[5-chloro-2-(2,4-dichloro-phenoxy)-phenoxy]-[1,2,4]triazolo[4,3-b]pyridazine]: the EC50 was in the range of 0.1 to 1 µM.

The assay is the same for the next values; noted with them: M2H assay, HEK293 cells; relative to DMSO; at the tested dose; read-out: TOP activation.
On to `CN1CCN(Cc2ccc(C(F)(F)F)cc2Oc2ccc3nnc(Cl)n3n2)CC1` [Cpd.4-124, 3-chloro-6-(2-((4-methylpiperazin-1-yl)methyl)-5-(trifluoromethyl)phenoxy)-[1,2,4]triazolo[4,3-b]pyridazine], for which the Emax was above 130%.

Regarding `CCN(CC)Cc1ccc(Oc2ccc3nnc(Cl)n3n2)c(-c2ccccc2)c1` [Cpd.4-157, 3-chloro-6-(5-diethylaminomethylbiphenyl-2-yloxy)-[1,2,4]triazolo[4,3-b]pyridazine], the Emax was above 130%.

In the case of `Fc1ccc(Oc2ccc3nnc(Cl)n3n2)c(-c2cccnc2)c1` [Cpd.4-107, 3-chloro-6-(4-fluoro-2-(pyridin-3-yl)phenoxy)-[1,2,4]triazolo[4,3-b]pyridazine], the Emax is above 130%.

For `CN1CCN(Cc2ccc(Oc3ccc4nnc(Cl)n4n3)c(-c3ccccc3)c2)CC1` [Cpd.4-159, 3-chloro-6-(5-(4-methylpiperazin-1-ylmethyl)biphenyl-2-yloxy)-[1,2,4]triazolo[4,3-b]pyridazine], the Emax is above 130%.
